Measurements from publication PMC8881501, “Identification of SARS-CoV-2 inhibitors targeting Mpro and PLpro using in-cell-protease assay” (Communications Biology, 2022).
Where “and” joins values, the source holds several entries; their conditions need not be identical. Identical values can stand only once. Like-named read-outs stand apart in the source and are kept apart here. Non-standard residues stand in square brackets, D forms with d. Residues, ends and D or L forms follow the SMILES beside them. Nle = CCCC[C@H](N)C(=O)O

System: SARS-CoV-2 delta variant
Assay type: cell-based
Conditions: Huh 7.5, replicates

Row | Compound | virus titer of delta variant, Fig 6B data (single drug 0.01 μM) | virus titer of delta variant, Fig 6B data (single drug 0.1 μM) | virus titer of delta variant, Fig 6B data (single drug 1 μM)
1 | CCCC[C@@H](C=O)NC(=O)[C@H](CC(C)C)NC(=O)[C@H](CC(C)C)NC(C)=O [MG-101] (Ac-Leu-Leu-[Nle]-aldehyde) | 640000 and 800000 and 400000 | 400000 and 960000 and 800000 | 240000 (2×) and 160000
2 | N[C@@H](CC(=O)N1CCn2c(nnc2C(F)(F)F)C1)Cc1cc(F)c(F)cc1F [Sitagliptin] | 960000 and 720000 and 480000 | 720000 and 400000 and 560000 | 560000 and 720000 and 64000
